Columns and labels:
[1] = biological target: T1, CDK2/CycE (Homo sapiens, UniProt P24941); experiment: CDK2/CycE kinase assay (Method 2, TR-FRET); format: biochemical; details: Method 2, 10 μM ATP
T1 construct: GST; purchased ProQinase GmbH (Freiburg, Germany); host or cells: insect cells (Sf9)
Source text: 2. CDK2/CycE Kinase Assay:
CDK2/CycE-inhibitory activity of compounds of the present invention was quantified employing the CDK2/CycE TR-FRET assay as described in the following paragraphs:
Recombinant fusion proteins of GST and human CDK2 and of GST and human CycE, expressed in insect cells (Sf9) and purified by Glutathion-Sepharose affinity chromatography, were purchased from ProQinase GmbH (Freiburg, Germany). As substrate for the kinase reaction biotinylated peptide biotin-Ttds-YISPLKSPYKISEG (C-terminus in amid form) was used which can be purchased e.g. form the company JERINI Peptide Technologies (Berlin, Germany).
For the assay 50 nl of a 100 fold concentrated solution of the test compound in DMSO was pipetted into a black low volume 384 well microtiter plate (Greiner Bio-One, Frickenhausen, Germany), 2 μl of a solution of CDK2/CycE in aqueous assay buffer [50 mM Tris/HCl pH 8.0, 10 mM MgCl2, 1.0 mM dithiothreitol, 0.1 mM sodium ortho-vanadate, 0.01% (v/v) Nonidet-P40 (Sigma)] were added and the mixture was incubated for 15 min at 22° C. to allow pre-binding of the test compounds to the enzyme before the start of the kinase reaction. Then the kinase reaction was started by the addition of 3 μl of a solution of adenosine-tri-phosphate (ATP, 16.7 μM=>final conc. in the 5 μl assay volume is 10 μM) and substrate (1.25 μM=>final conc. in the 5 μl assay volume is 0.75 μM) in assay buffer and the resulting mixture was incubated for a reaction time of 25 min at 22° C. The concentration of CDK2/CycE was adjusted depending of the activity of the enzyme lot and was chosen appropriate to have the assay in the linear range, typical concentrations were in the range of 130 ng/mL. The reaction was stopped by the addition of 5 μl of a solution of TR-FRET detection reagents (0.2 μM streptavidine-XL665 [Cisbio Bioassays, Codolet, France] and 1 nM anti-RB(pSer807/pSer811)-antibody from BD Pharmingen [#558389] and 1.2 nM LANCE EU-W1024 labeled anti-mouse IgG antibody [Perkin-Elmer, product no. AD0077]) in an aqueous EDTA-solution (100 mM EDTA, 0.2% (w/v) bovine serum albumin in 100 mM HEPES/NaOH pH 7.0).
The resulting mixture was incubated 1 h at 22° C. to allow the formation of complex between the phosphorylated biotinylated peptide and the detection reagents. Subsequently the amount of phosphorylated substrate was evaluated by measurement of the resonance energy transfer from the Eu-chelate to the streptavidine-XL. Therefore, the fluorescence emissions at 620 nm and 665 nm after excitation at 350 nm was measured in a TR-FRET reader, e.g. a Rubystar (BMG Labtechnologies, Offenburg, Germany) or a Viewlux (Perkin-Elmer). The ratio of the emissions at 665 nm and at […] was taken as the measure for the amount of phosphorylated substrate. The data were normalised (enzyme reaction without inhibitor=0% inhibition, all other assay components but no enzyme=100% inhibition).

[2] = system: HeLa, human cervical tumour cells; experiment: Proliferation assay, HeLa (crystal violet); format: cell-based; details: 96 h, 4 days, read-out: Inhibition of HeLa cell proliferation
Procedure: (§1) Cultivated tumour cells (HeLa, human cervical tumour cells, ATCC CCL-2; NCI-H460, human non-small cell lung carcinoma cells, ATCC HTB-177; A2780, human ovarian carcinoma cells, ECACC #93112519; DU 145, hormone-independent human prostate carcinoma cells, ATCC HTB-81; HeLa-MaTu-ADR, multidrug-resistant human cervical carcinoma cells, EPO-GmbH Berlin; Caco-2, human colorectal carcinoma cells, ATCC HTB-37; B16F10, mouse melanoma cells, ATCC CRL-6475) were plated at a density of 5,000 cells/well (DU145, HeLa-MaTu-ADR), 3,000 cells/well (NCI-H460, HeLa), 2,500 cells/well (A2780), 1,500 cells/well (Caco-2), or 1,000 cells/well (B16F10) in a 96-well multititer plate in 200 μL of their respective growth medium supplemented 10% fetal calf serum. After 24 hours, the cells of one plate (zero-point plate) were stained with crystal violet (see below), while the medium of the other plates was replaced by fresh culture medium (200 μl), to which the test substances were added in various concentrations (0 μM, as well as in the range of 0.001-10 μM; the final concentration of the solvent dimethyl sulfoxide was 0.5%). The cells were incubated for 4 days in the presence of test substances. Cell proliferation was determined by staining the cells with crystal violet: the cells were fixed by adding 20 μl/measuring point of an 11% glutaric aldehyde solution for 15 minutes at room temperature. After three washing cycles of the fixed cells with water, the plates were dried at room temperature. The cells were stained by adding 100 μl/measuring point of a 0.1% crystal violet solution (pH 3.0). After three washing cycles of the stained cells with water, the plates were dried at room temperature. The dye was dissolved by adding 100 μl/measuring point of a 10% acetic acid solution. The extinction was determined by photometry at a wavelength of 595 nm. The change of cell number, in percent, was calculated by normalization of the measured values to the extinction values of the zero-point plate (=0%) and the extinction of the untreated (0 μm) cells (=100%). The IC50 values (inhibitory concentration at 50% of maximal effect) were determined by means of a 4 parameter fit.

[3] = system: B16F10, mouse melanoma cells; experiment: Proliferation assay, B16F10 (crystal violet); format: cell-based; details: B16-F10, 96 h, B16F10, 4 days, read-out: Inhibition of B16F10 cell proliferation
Procedure: as §1

[4] = system: DU 145, hormone-independent human prostate carcinoma cells; experiment: Proliferation assay, DU145 (crystal violet); format: cell-based; details: DU-145, 96 h, DU145, 4 days, read-out: Inhibition of DU145 cell proliferation
Procedure: as §1

[5] = system: NCI-H460, human non-small cell lung carcinoma cells; experiment: Proliferation assay, NCI-H460 (crystal violet); format: cell-based; details: 96 h, NCI-H460, 4 days, read-out: Inhibition of NCI-H460 cell proliferation
Procedure: as §1

[6] = system: HeLa-MaTu-ADR, multidrug-resistant human cervical carcinoma cells; experiment: Proliferation assay, HeLa-MaTu-ADR (crystal violet); format: cell-based; details: 96 h, 4 days, read-out: Inhibition of HeLa-MaTu-ADR cell proliferation
Procedure: as §1

[7] = system: Caco-2, human colorectal carcinoma cells; experiment: Proliferation assay, Caco-2 (crystal violet); format: cell-based; details: 96 h, Caco-2, 4 days, read-out: Inhibition of Caco-2 cell proliferation
Procedure: as §1

[8] = system: A2780, human ovarian carcinoma cells; experiment: Proliferation assay, A2780 (crystal violet); format: cell-based; details: 96 h, A2780, 4 days, read-out: Inhibition of A2780 cell proliferation
Procedure: as §1, with “The IC50 values (inhibitory concentration at 50% of maximal effect) were determined by means of a 4 parameter fit.” left out

Row | SMILES | IC50 [1] [nM] | IC50 [2] [nM] | IC50 [3] [nM] | IC50 [4] [nM] | IC50 [5] [nM] | IC50 [6] [nM] | IC50 [7] [nM] | IC50 [8] [nM]
1 | CCc1cc(CS(C)(=N)=O)cc(Nc2cc(-c3ccc(F)c4ccoc34)c(F)cn2)n1 (racemic) [Example 8, (rac)-N-{6-Ethyl-4-[(S-methylsulfonimidoyl)methyl]pyridin-2-yl}-5-fluoro-4-(4-fluoro-1-benzofuran-7-yl)pyridin-2-amine] | 14 | 7.6 | 32 | 11 | 35 | 8.8 | 9.4 | –
2 | CS(=O)(Cc1cc(Nc2cc(-c3ccc(F)c4ccoc34)c(F)cn2)nc(C(F)(F)F)c1)=NC(=O)C(F)(F)F (racemic) [Example 4, (rac)-2,2,2-Trifluoro-N-[{[2-{[5-fluoro-4-(4-fluoro-1-benzofuran-7-yl)pyridin-2-yl]amino}-6-(trifluoromethyl)pyridin-4-yl]methyl}(methyl)oxido-λ^6-sulfanylidene]acetamide] | 110 | 31 | 44 | 37 | 36 | 30 | 40 | –
3 | Cc1cc(CS(C)(=N)=O)cc(Nc2cc(-c3ccc(F)c4ccoc34)c(F)cn2)n1 (racemic) [Example 7, (rac)-5-Fluoro-4-(4-fluoro-1-benzofuran-7-yl)-N-{6-methyl-4-[(S-methylsulfonimidoyl)-methyl]pyridin-2-yl}pyridin-2-amine] | 39 | 11 | 17 | 14 | 33 | 9.1 | 14 | –
4 | CS(=O)(Cc1cc(F)nc(Nc2cc(-c3ccc(F)c4ccoc34)c(F)cn2)c1)=NC(=O)C(F)(F)F (racemic) [Example 2, (rac)-2,2,2-Trifluoro-N-{[(2-fluoro-6-{[5-fluoro-4-(4-fluoro-1-benzofuran-7-yl)pyridin-2-yl]amino}pyridin-4-yl)methyl](methyl)oxido-λ^6-sulfanylidene}acetamide] | 380 | 31 | 42 | 32 | 32 | 30 | 35 | –
5 | CS(=N)(=O)Cc1cc(Nc2cc(-c3ccc(F)c4ccoc34)c(F)cn2)nc(C(F)(F)F)c1 (racemic) [Example 3, (rac)-5-Fluoro-4-(4-fluoro-1-benzofuran-7-yl)-N-{4-[(S-methylsulfonimidoyl)methyl]-6-(trifluoromethyl)pyridin-2-yl}pyridin-2-amine] | 21 | 6 | 19 | 15 | 21 | 11 | 19 | 10
6 | CS(=O)(Cc1ccnc(Nc2cc(-c3ccc(F)c4ccoc34)c(F)cn2)c1)=NC(=O)C(F)(F)F (racemic) [Example 6, (rac)-2,2,2-Trifluoro-N-{[(2-{[5-fluoro-4-(4-fluoro-1-benzofuran-7-yl)pyridin-2-yl]amino}pyridin-4-yl)methyl](methyl)oxido-λ^6-sulfanylidene}acetamide] | 540 | 42 | 88 | 42 | 46 | 52 | 58 | –
7 | CS(=N)(=O)Cc1cc(F)nc(Nc2cc(-c3ccc(F)c4ccoc34)c(F)cn2)c1 (racemic) [Example 1, (rac)-5-Fluoro-4-(4-fluoro-1-benzofuran-7-yl)-N-{6-fluoro-4-[(S-methylsulfonimidoyl)methyl]pyridin-2-yl}pyridin-2-amine] | 42 | 30 | 41 | 33 | 36 | 30 | 34 | 11

More lines, now with the values ahead:

Row | IC50 [1] [nM] | IC50 [2] [nM] | IC50 [3] [nM] | IC50 [4] [nM] | IC50 [5] [nM] | IC50 [6] [nM] | IC50 [7] [nM] | IC50 [8] [nM] | SMILES
8 | 280 | – | – | – | – | – | – | – | CS(=O)(Cc1ccnc(Nc2cc(-c3ccc(F)c4ccoc34)c(F)cn2)c1)=NC(=O)NCC(F)(F)F (racemic) [Example 13, (rac)-1-{[(2-{[5-Fluoro-4-(4-fluoro-1-benzofuran-7-yl)pyridin-2-yl]amino}pyridin-4-yl)methyl](methyl)oxido-λ^6-sulfanylidene}-3-(2,2,2-trifluoroethyl)urea]
9 | 166 | – | – | – | – | – | – | – | CC(=O)N=S(C)(=O)Cc1ccnc(Nc2cc(-c3ccc(F)c4ccoc34)c(F)cn2)c1 (racemic) [Example 10, (rac)-N-{[(2-{[5-fluoro-4-(4-fluoro-1-benzofuran-7-yl)pyridin-2-yl]amino}pyridin-4-yl)methyl](methyl)oxido-λ^6-sulfanylidene}acetamide]
10 | 146 | – | – | – | – | – | – | – | CS(=O)(Cc1ccnc(Nc2cc(-c3ccc(F)c4ccoc34)c(F)cn2)c1)=NC#N (racemic) [Example 9, (rac)-{[(2-{[5-fluoro-4-(4-fluoro-1-benzofuran-7-yl)pyridin-2-yl]amino}pyridin-4-yl)methyl](methyl)oxido-λ^6-sulfanylidene}cyanamide]
11 | 113 | – | – | – | – | – | – | – | CCNC(=O)N=S(C)(=O)Cc1ccnc(Nc2cc(-c3ccc(F)c4ccoc34)c(F)cn2)c1 (racemic) [Example 12, (rac)-1-Ethyl-3-{[(2-{[5-fluoro-4-(4-fluoro-1-benzofuran-7-yl)pyridin-2-yl]amino}pyridin-4-yl)methyl](methyl)oxido-λ^6-sulfanylidene}urea]
12 | 138 | – | – | – | – | – | – | – | CCOC(=O)N=S(C)(=O)Cc1ccnc(Nc2cc(-c3ccc(F)c4ccoc34)c(F)cn2)c1 (racemic) [Example 11, (rac)-Ethyl {[(2-{[5-fluoro-4-(4-fluoro-1-benzofuran-7-yl)pyridin-2-yl]amino}pyridin-4-yl)methyl](methyl)oxido-λ^6-sulfanylidene}carbamate]

Source: patent publication US9770445B2, “Sulfoximine substituted 5-fluoro-N-(pyridin-2-yl)pyridin-2-amine derivatives and their use as CDK9 kinase inhibitors” (BAYER PHARMA AKTIENGESELLSCHAFT, priority 2013, dated 2017)
